For orientation: Ki means the equilibrium dissociation constant of an inhibitor or competing ligand from its target. A low value points to higher affinity. The Km is the substrate concentration at which the rate is half of its maximum.

Data set [1] has as its target T1, CTL843 (SAMHT, SAM/SAH transporter) (Chlamydia trachomatis, UniProt B0B8F4).
T1 sequence (B0B8F4 1-327): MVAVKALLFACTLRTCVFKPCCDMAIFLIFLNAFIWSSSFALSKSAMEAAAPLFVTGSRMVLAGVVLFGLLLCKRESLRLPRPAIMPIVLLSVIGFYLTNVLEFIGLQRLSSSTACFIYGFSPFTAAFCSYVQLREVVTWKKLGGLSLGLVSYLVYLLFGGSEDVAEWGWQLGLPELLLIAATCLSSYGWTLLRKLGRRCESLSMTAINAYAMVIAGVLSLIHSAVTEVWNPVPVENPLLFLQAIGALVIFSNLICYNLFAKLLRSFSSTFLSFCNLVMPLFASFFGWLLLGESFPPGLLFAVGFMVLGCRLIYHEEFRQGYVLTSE
As to the kind of experiment: inhibition of […]SAM uptake in whole E. coli cells expressing CTL843. The data set is classed as cell-based.

Substrate in data set [2]: C[S@@+](CC[C@H](N)C(=O)O)C[C@H]1O[C@@H](n2cnc3c(N)ncnc32)[C@H](O)[C@@H]1O
As to the kind of experiment: cells, lysate or membranes.

In turn, `Nc1ncnc2c1ncn2[C@@H]1O[C@H](CSCC[C@H](N)C(=O)O)[C@@H](O)[C@H]1O` [SAH, S-Adenosyl-L-homocysteine] registered a Ki in data set [1] of 4.12 µM.

B1: CTL843 (SAMHT, SAM/SAH transporter) (Chlamydia trachomatis L2/434/Bu) (protein)
chain: MVAVKALLFACTLRTCVFKPCCDMAIFLIFLNAFIWSSSFALSKSAMEAAAPLFVTGSRMVLAGVVLFGLLLCKRESLRLPRPAIMPIVLLSVIGFYLTNVLEFIGLQRLSSSTACFIYGFSPFTAAFCSYVQLREVVTWKKLGGLSLGLVSYLVYLLFGGSEDVAEWGWQLGLPELLLIAATCLSSYGWTLLRKLGRRCESLSMTAINAYAMVIAGVLSLIHSAVTEVWNPVPVENPLLFLQAIGALVIFSNLICYNLFAKLLRSFSSTFLSFCNLVMPLFASFFGWLLLGESFPPGLLFAVGFMVLGCRLIYHEEFRQGYVLTSE
Consider B1, for which the Km in data set [2] is on record as 5.88 ± 0.11 µM.

Source of the values: PMC3104491 (mBio, 2011).
